Data reported in patent US11685744B2, “CDK inhibitors and their use as pharmaceuticals” (Prelude Therapeutics, Incorporated, priority 2020, dated 2023).

Columns and labels:
[1] = test system: MCF7 adenocarcinoma cell line; assay: Cell proliferation studies in MCF7 cells (ATP-Lite, 10 days); assay type: cell-based; conditions: Homo sapiens, 240 h, read-out: PROLIFERATION_CTG_MCF7 IC50
Protocol: Cell Proliferation Studies in MCF7 Cells
Cell proliferation studies were conducted in MCF7 adenocarcinoma cell line. Cells were maintained in DMEM (Coming, Catalog #: 10-013-CV) supplemented with 10% v/v FBS (Gibco, Catalog #: 26140-079), 1% v/v Penicillin Streptomycin (Gibco, Catalog #15140-122) Cells were seeded in 384-well plates at a density of 100 or 200 cells/well. Compounds dissolved in DMSO were plated in quadruplicate using a digital dispenser (D300E, Tecan) and tested on a 9-point 3-fold serial dilution. Cells were incubated for 10 days in a 37° C. active humidified incubator at 5% CO2. A media exchange and second compound addition were performed on day 5. Cell viability was measured using the ATP-Lite 1-Step Luminescence reagent (Perkin Elmer, Catalog #: 6016731) as per manufacturer's instructions. Luminescence signal was measured with a multimode plate reader (Envision 2105, Perkin Elmer). Raw data files were imported to Dotmatics Screening Ultra for IC50 analysis. Luminescence values were normalized to both background and DMSO controls to obtain a percentage of viable cells relative to DMSO vehicle control.

CDK4/Cyclin D1 = CDK4/Cyclin D1 (Homo sapiens (Human), UniProt P11802); assay: CDK4/CyclinD1 enzymatic activity assay (TR-FRET); assay type: biochemical; conditions: ATP 2 mM, read-out: CDK4_D1 IC50
Chain of CDK4/Cyclin D1 (P11802 whole entry): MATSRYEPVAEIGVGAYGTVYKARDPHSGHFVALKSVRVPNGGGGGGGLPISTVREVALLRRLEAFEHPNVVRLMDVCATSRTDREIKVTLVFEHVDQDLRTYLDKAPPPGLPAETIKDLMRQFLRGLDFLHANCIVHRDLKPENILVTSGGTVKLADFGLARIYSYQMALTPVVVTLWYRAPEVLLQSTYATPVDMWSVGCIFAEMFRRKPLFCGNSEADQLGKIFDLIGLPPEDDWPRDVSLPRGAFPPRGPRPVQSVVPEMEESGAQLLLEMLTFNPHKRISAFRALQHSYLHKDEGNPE
Chain of CDK4/Cyclin D1 (P24385 whole entry partner): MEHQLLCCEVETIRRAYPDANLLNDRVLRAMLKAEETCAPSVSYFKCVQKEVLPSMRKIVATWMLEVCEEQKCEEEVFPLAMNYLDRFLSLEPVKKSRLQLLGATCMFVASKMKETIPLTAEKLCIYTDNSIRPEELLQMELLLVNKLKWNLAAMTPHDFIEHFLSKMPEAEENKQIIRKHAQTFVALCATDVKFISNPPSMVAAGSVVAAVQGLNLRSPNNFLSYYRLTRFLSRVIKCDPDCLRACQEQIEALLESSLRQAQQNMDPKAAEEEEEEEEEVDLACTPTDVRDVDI
Protocol: CDK4/CyclinD1 Enzymatic Activity Assay
The inhibitory activity of compounds was evaluated in vitro using TR-FRET assay with white 384-well low volume microplate (Greiner Bio-One). CDK4/Cyclin D1 catalyzed phosphorylation of peptide in the presence and absence of compounds was measured. IC50 determination. Recombinant protein complex CDK4/Cyclin D1, expressed from insect cell, was purchased from ProQinase. Testing compounds were dissolved in DMSO at 0.1 mM and tested in 9-dose IC50 mode. The reaction mixture was prepared by mixing CDK4/CyclinD1 (1 nM final), ULight-4E-BP1 (100 nM final, Perkinelmer, TRF0128-D), and ATP (2 mM final) in assay buffer (20 mM of HEPES pH 7.4, 1 mM of EGTA, 0.05% BSA, 0.005% Tween 20, and 1 mM TCEP). The compound of interest in DMSO was added to each well in 3-fold serial dilution by dispenser (TECAN D300E). After 20 minutes preincubation at room temperature, MgCl2 (10 mM final) was added to initiate the reaction. Following a 60 minutes incubation at 37° C., the reaction was stopped by addition of 2 μL of quenching buffer consisting of Lance detection buffer (Perkinelmer CR97-100C), 2 nM LANCE Ultra Europium-anti-P-4E-BP1 (Perkinelmer, TRF0216-D), 10 mM EDTA, and incubate at room temperature for additional 60 minutes in dark. The reaction signal was measured by Envision multimode plate reader (PerkinElmer, 2102-0010). IC50 values were determined by fitting the data to the standard 4 parameters with Hill Slope using GraphPad Prism software.

| Structure (SMILES) | IC50 [1] [nM] | IC50 (CDK4/Cyclin D1) [nM] |
| --- | --- | --- |
| Cc1nc2cc(-c3nc(Nc4ccc(N5CCN(C)CC5)cn4)ncc3F)sc2n1C1CCCC1 [Example 13, 4-(3-Cyclopentyl-2-methyl-3H-thieno[2,3-d]imidazol-5-yl)-5-fluoro-N-(5-(4-methylpiperazin-1-yl)pyridin-2-yl)pyrimidin-2-amine] | 20 to 200 | ≤ 20 |
| CCN1CCN(c2ccc(Nc3ncc(F)c(-c4cc5nccc(C(C)C)c5s4)n3)nc2)CC1 [Example 14, N-[5-(4-Ethylpiperazin-1-yl)pyridin-2-yl]-5-fluoro-4-(7-propan-2-ylthieno[3,2-b]pyridin-2-yl)pyrimidin-2-amine] | 20 to 200 | ≤ 20 |
| CCN1CCC(c2ccc(Nc3ncc(F)c(-c4sc5c(C6CCCC6)ccnc5c4Cl)n3)nc2)CC1 [Example 20, 4-(3-Chloro-7-cyclopentylthieno[3,2-b]pyridin-2-yl)-N-[5-(1-ethylpiperidin-4-yl)pyridin-2-yl]-5-fluoropyrimidin-2-amine] | 20 to 200 | ≤ 20 |
| CCN1CCN(Cc2ccc(Nc3ncc(F)c(-c4sc5c(C6CCCC6)ccnc5c4C)n3)nc2)CC1 [Example 22, 4-(7-Cyclopentyl-3-methylthieno[3,2-b]pyridin-2-yl)-N-(5-((4-ethylpiperazin-1-yl)methyl)pyridin-2-yl)-5-fluoropyrimidin-2-amine] | 200 to 2000 | 20 to 200 |
| CCN1CCN(c2ccc(Nc3ncc(F)c(-c4cc5nccc(C6CCCC6)c5s4)n3)nc2)CC1 [Example 24, 4-(7-Cyclopentylthieno[3,2-b]pyridin-2-yl)-N-[5-(4-ethylpiperazin-1-yl)pyridin-2-yl]-5-fluoropyrimidin-2-amine] | 200 to 2000 | 20 to 200 |
| Cc1c(-c2nc(Nc3ccc(N4CCN(C)CC4)cn3)ncc2F)sc2c(C3CCCC3)ccnc12 [Example 28, 4-(7-Cyclopentyl-3-methylthieno[3,2-b]pyridin-2-yl)-5-fluoro-N-(5-(4-methylpiperazin-1-yl)pyridin-2-yl)pyrimidin-2-amine] | 200 to 2000 | 20 to 200 |
| CCN1CCN(c2ccc(Nc3ncc(F)c(-c4cc5nccc(C(C)(O)C(F)(F)F)c5s4)n3)nc2)CC1 (stereo not drawn) [Example 29, 2-[2-[2-[[5-(4-Ethylpiperazin-1-yl)pyridin-2-yl]amino]-5-fluoropyrimidin-4-yl]thieno[3,2-b]pyridin-7-yl]-1,1,1-trifluoropropan-2-ol] | 20 to 200 | 20 to 200 |
| CCN1CCN(c2ccc(Nc3ncc(F)c(-c4sc5c(C6CCCC6)ccnc5c4C)n3)nc2)CC1 [Example 31, 4-(7-Cyclopentyl-3-methylthieno[3,2-b]pyridin-2-yl)-N-(5-(4-ethylpiperazin-1-yl)pyridin-2-yl)-5-fluoropyrimidin-2-amine] | 200 to 2000 | 20 to 200 |
| CCN1CCN(Cc2ccc(Nc3ncc(F)c(-c4cc5nccc(C6CCCC6)c5s4)n3)nc2)CC1 [Example 33, 4-(7-Cyclopentylthieno[3,2-b]pyridin-2-yl)-N-[5-[(4-ethylpiperazin-1-yl)methyl]pyridin-2-yl]-5-fluoropyrimidin-2-amine] | 200 to 2000 | ≤ 20 |
| CN1CCC(c2ccc(Nc3ncc(F)c(-c4cc5nccc(C6CCCC6)c5s4)n3)nc2)CC1 [Example 34, 4-(7-Cyclopentylthieno[3,2-b]pyridin-2-yl)-5-fluoro-N-(5-(1-methylpiperidin-4-yl)pyridin-2-yl)pyrimidin-2-amine] | 20 to 200 | ≤ 20 |
| Fc1cnc(Nc2ccc(N3CCNCC3)cn2)nc1-c1cc2nccc(C3CCCC3)c2s1 [Example 36, 4-(7-Cyclopentylthieno[3,2-b]pyridin-2-yl)-5-fluoro-N-(5-piperazin-1-ylpyridin-2-yl)pyrimidin-2-amine] | 200 to 2000 | 20 to 200 |
| CN1CCN(c2ccc(Nc3ncc(F)c(-c4cc5nccc(C6CCCC6)c5s4)n3)nc2)CC1 [Example 37, 4-(7-Cyclopentylthieno[3,2-b]pyridin-2-yl)-5-fluoro-N-[5-(4-methylpiperazin-1-yl)pyridin-2-yl]pyrimidin-2-amine] | 200 to 2000 | 20 to 200 |

Further lines, results first:

| IC50 [1] [nM] | IC50 (CDK4/Cyclin D1) [nM] | Structure (SMILES) |
| --- | --- | --- |
| 20 to 200 | ≤ 20 | CCN1CCN(c2ccc(Nc3ncc(F)c(-c4sc5c(C6CCCC6)ccnc5c4Cl)n3)nc2)CC1 [Example 16, 4-(3-Chloro-7-cyclopentylthieno[3,2-b]pyridin-2-yl)-N-[5-(4-ethylpiperazin-1-yl)pyridin-2-yl]-5-fluoropyrimidin-2-amine] |
| 20 to 200 | 20 to 200 | CCN1CC2(C1)CN(c1ccc(Nc3ncc(F)c(-c4cc5nccc(C(C)(O)C(F)(F)F)c5s4)n3)nc1)C2 (stereo not drawn) [Example 18, 2-[2-[2-[[5-(6-Ethyl-2,6-diazaspiro[3.3]heptan-2-yl)pyridin-2-yl]amino]-5-fluoropyrimidin-4-yl]thieno[3,2-b]pyridin-7-yl]-1,1,1-trifluoropropan-2-ol] |
| 200 to 2000 | 20 to 200 | CCN1CCN(Cc2ccc(Nc3ncc(F)c(-c4cc5nccc(C(C)C)c5s4)n3)nc2)CC1 [Example 19, N-[5-[(4-Ethylpiperazin-1-yl)methyl]pyridin-2-yl]-5-fluoro-4-(7-propan-2-ylthieno[3,2-b]pyridin-2-yl)pyrimidin-2-amine] |
| 20 to 200 | 20 to 200 | CCN1CCN(Cc2ccc(Nc3ncc(F)c(-c4cc5nccc(C(C)(O)C(F)(F)F)c5s4)n3)nc2)CC1 (stereo not drawn) [Example 25, 2-[2-[2-[[5-[(4-Ethylpiperazin-1-yl)methyl]pyridin-2-yl]amino]-5-fluoropyrimidin-4-yl]thieno[3,2-b]pyridin-7-yl]-1,1,1-trifluoropropan-2-ol] |
| 20 to 200 | ≤ 20 | Cc1c(-c2nc(Nc3ccc(C4CCN(C)CC4)cn3)ncc2F)sc2c(C3CCCC3)ccnc12 [Example 26, 4-(7-Cyclopentyl-3-methylthieno[3,2-b]pyridin-2-yl)-5-fluoro-N-(5-(1-methylpiperidin-4-yl)pyridin-2-yl)pyrimidin-2-amine] |
| 200 to 2000 | 20 to 200 | CCN1CCN(Cc2ccc(Nc3ncc(F)c(-c4cc5nccc(C(C)(C)O)c5s4)n3)nc2)CC1 [Example 27, 2-[2-[2-[[5-[(4-Ethylpiperazin-1-yl)methyl]pyridin-2-yl]amino]-5-fluoropyrimidin-4-yl]thieno[3,2-b]pyridin-7-yl]propan-2-ol] |
| 200 to 2000 | ≤ 20 | Cc1c(-c2nc(Nc3ccc(N4CC5(CNC5)C4)cn3)ncc2F)sc2c(C3CCCC3)ccnc12 [Example 32, N-(5-(2,6-Diazaspiro[3.3]heptan-2-yl)pyridin-2-yl)-4-(7-cyclopentyl-3-methylthieno[3,2-b]pyridin-2-yl)-5-fluoropyrimidin-2-amine] |
| > 2000 | 20 to 200 | Cc1c(-c2nc(Nc3ccc(N4CCOCC4)cn3)ncc2F)sc2c(C3CCCC3)ccnc12 [Example 38, 4-(7-Cyclopentyl-3-methylthieno[3,2-b]pyridin-2-yl)-5-fluoro-N-(5-morpholinopyridin-2-yl)pyrimidin-2-amine] |
| 200 to 2000 | 20 to 200 | COC1CCN(c2ccc(Nc3ncc(F)c(-c4cc5nccc(C6CCCC6)c5s4)n3)nc2)CC1 [Example 39, 4-(7-Cyclopentylthieno[3,2-b]pyridin-2-yl)-5-fluoro-N-[5-(4-methoxypiperidin-1-yl)pyridin-2-yl]pyrimidin-2-amine] |
| > 2000 | 20 to 200 | Fc1cnc(Nc2ccc(N3CCOCC3)cn2)nc1-c1cc2nccc(C3CCCC3)c2s1 [Example 40, 4-(7-Cyclopentylthieno[3,2-b]pyridin-2-yl)-5-fluoro-N-(5-morpholinopyridin-2-yl)pyrimidin-2-amine] |
| > 2000 | 200 to 2000 | Fc1cnc(Nc2ccc(N3CCC(F)(F)C3)cn2)nc1-c1cc2nccc(C3CCCC3)c2s1 [Example 41, 4-(7-Cyclopentylthieno[3,2-b]pyridin-2-yl)-N-[5-(3,3-difluoropyrrolidin-1-yl)pyridin-2-yl]-5-fluoropyrimidin-2-amine] |
| > 2000 | 200 to 2000 | Fc1cnc(Nc2ccc(N3CCOCC3)cn2)nc1-c1cc2c(C3CCCC3)ccnc2s1 [Example 42, 4-(4-Cyclopentylthieno[2,3-b]pyridin-2-yl)-5-fluoro-N-(5-morpholin-4-ylpyridin-2-yl)pyrimidin-2-amine] |
